What was measured:
LOLRI = assay: Post-emergence herbicidal action against LOLRI; assay type: in vivo, Lolium rigidum; settings: application rate 80 g/ha, rated visually after about 3 weeks
Summary of the method: (§1)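 Visual rating of activity (0% = as untreated control, 100% = plants dead) about 3 weeks after treatment. Plants were sprayed at the one-leaf stage, 2 to 3 weeks post-sowing in sandy loam, with WP or EC formulations plus 0.5% additive at 600 l/ha water.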

PHBPU = assay: Post-emergence herbicidal action against PHBPU; assay type: in vivo, Pharbitis purpurea; settings: application rate 80 g/ha, rated visually about 3 weeks after treatment
Summary of the method: as §1

HORMU = assay: Post-emergence herbicidal action against HORMU; assay type: in vivo, Hordeum murinum; settings: application rate 80 g/ha
Summary of the method: as §1

POLCO = assay: Post-emergence herbicidal action against POLCO; assay type: in vivo, Polygonum convolvulus; settings: application rate 80 g/ha, rated visually about 3 weeks after treatment
Summary of the method: as §1

VIOTR = assay: Post-emergence herbicidal action against VIOTR; assay type: in vivo, Viola tricolor; settings: application rate 80 g/ha, rated visually about 3 weeks after treatment
Summary of the method: as §1

SETVI = assay: Post-emergence herbicidal action against SETVI; assay type: in vivo, Setaria viridis; settings: application rate 80 g/ha, rated visually after about 3 weeks
Summary of the method: as §1

STEME = assay: Post-emergence herbicidal action against STEME; assay type: in vivo, Stellaria media; settings: application rate 80 g/ha, rated visually about 3 weeks after treatment
Summary of the method: as §1

ALOMY = assay: Post-emergence herbicidal action against ALOMY; assay type: in vivo, Alopecurus myosuroides; settings: application rate 80 g/ha, rated visually after about 3 weeks
Summary of the method: as §1

MATIN = assay: Post-emergence herbicidal action against MATIN; assay type: in vivo, Matricaria inodora; settings: application rate 80 g/ha, rated visually about 3 weeks after treatment
Procedure: [table] 2. Post-emergence herbicidal action against harmful plants and crop plant compatibility Seeds of monocotyledonous and dicotyledonous weeds and crop plants are placed in sandy loam in plastic or wood-fibre pots, covered with soil and cultivated in a greenhouse under controlled growth conditions. 2 to 3 weeks after sowing, the test plants are treated at the one-leaf stage. The compounds of the invention, formulated in the form of wettable powders (WP) or as emulsion concentrates (EC), are then sprayed onto the green parts of the plants as aqueous suspension or emulsion with addition of 0.5% additive at a water application rate of 600 l/ha (converted). After the test plants have been kept in the greenhouse under optimum growth conditions for about 3 weeks, the activity of the preparations is rated visually in comparison to untreated controls. For example, 100% activity=the plants have died, 0% activity=like control plants.

AVEFA = assay: Post-emergence herbicidal action against AVEFA; assay type: in vivo, Avena fatua; settings: application rate 80 g/ha, rated visually after about 3 weeks
Summary of the method: as §1

VERPE = assay: Post-emergence herbicidal action against VERPE; assay type: in vivo, Veronica persica; settings: application rate 80 g/ha
Summary of the method: as §1

ABUTH = assay: Post-emergence herbicidal action against ABUTH; assay type: in vivo, Abutilon theophrasti; settings: application rate 80 g/ha, rated visually about 3 weeks after treatment
Summary of the method: as §1

ECHCG = assay: Post-emergence herbicidal action against ECHCG; assay type: in vivo, Echinochloa crus-galli; settings: application rate 80 g/ha, rated visually after about 3 weeks
Summary of the method: as §1

AMARE = assay: Post-emergence herbicidal action against AMARE; assay type: in vivo, Amaranthus retroflexus; settings: application rate 80 g/ha, rated visually about 3 weeks after treatment
Summary of the method: as §1

| Compound | Herbicidal action against [%] LOLRI (LOLRI) | Herbicidal action against [%] PHBPU (PHBPU) | Herbicidal action against [%] HORMU (HORMU) | Herbicidal action against [%] POLCO (POLCO) | Herbicidal action against [%] VIOTR (VIOTR) | Herbicidal action against [%] SETVI (SETVI) | Herbicidal action against [%] STEME (STEME) | Herbicidal action against [%] ALOMY (ALOMY) | Herbicidal action against [%] MATIN (MATIN) | Herbicidal action against [%] AVEFA (AVEFA) | Herbicidal action against [%] VERPE (VERPE) | Herbicidal action against [%] ABUTH (ABUTH) | Herbicidal action against [%] ECHCG (ECHCG) | Herbicidal action against [%] AMARE (AMARE) |
| --- | --- | --- | --- | --- | --- | --- | --- | --- | --- | --- | --- | --- | --- | --- |
| C=CC1(C(=O)NC2C=CC(C(=O)O)C2)CC(c2cc(F)cc(F)c2)=NO1 (mixture of isomers) [Example I-037] | 90% | 80% | 90% | 90% | 90% | 90% | 90% | 90% | 80% | 90% | 90% | 90% | 90% | 90% |
| CCOC(=O)C1C=CC(NC(=O)C2(C(F)(F)F)CC(c3cc(Cl)cc(Cl)c3)=NO2)C1 (mixture of isomers) [Example I-038] | 90% | 80% | 80% | 80% | 80% | 90% | 90% | 90% | 90% | 100% | 90% | 80% | 80% | 80% |
| CCOC(=O)C1C=CC(NC(=O)C2(C(F)(F)F)CC(c3cc(F)cc(F)c3)=NO2)C1 (mixture of isomers) [Example I-058] | 90% | 80% | 100% | 90% | 90% | 90% | 90% | 100% | 90% | 100% | 80% | 90% | 100% | 90% |
| C=CC1(C(=O)N[C@H]2C=C[C@@H](C(=O)OCC(F)(F)F)C2)CC(c2cc(F)cc(F)c2)=NO1 (stereo partly drawn) [Example I-015] | 100% |  | 100% | 100% | 90% | 90% | 100% | 100% | 80% | 100% | 90% | 90% | 100% | 100% |
| C=CC1(C(=O)N[C@H]2C=C[C@@H](C(=O)OCC(F)F)C2)CC(c2cc(F)cc(F)c2)=NO1 (stereo partly drawn) [Example I-016] | 100% |  | 90% | 90% | 80% | 90% | 100% | 100% | 80% | 90% | 90% | 90% | 100% | 90% |
| C=CC1(C(=O)N[C@H]2C=C[C@@H](C(=O)OCCC(F)(F)F)C2)CC(c2cc(F)cc(F)c2)=NO1 (stereo partly drawn) [Example I-017] | 100% |  | 100% | 90% | 80% | 90% | 100% | 100% | 80% | 100% | 90% | 100% | 100% | 90% |
| COC(=O)[C@@H]1C=C[C@H](NC(=O)C2(OC)CC(c3cc(F)cc(F)c3)=NO2)C1 (stereo partly drawn) [Example I-019] | 90% |  | 90% | 100% | 80% | 90% | 90% | 90% | 90% | 100% | 90% | 80% | 80% | 90% |
| CCOC(=O)[C@@H]1C=C[C@H](NC(=O)C2(OC)CC(c3cc(F)cc(F)c3)=NO2)C1 (stereo partly drawn) [Example I-020] | 90% | 80% | 80% |  | 100% | 90% | 80% | 90% | 90% | 100% | 90% | 80% | 80% | 100% |
| CCOC(=O)[C@@H]1C=C[C@H](NC(=O)C2(C(F)(F)F)CC(c3cc(C)cc(Cl)c3)=NO2)C1 (stereo partly drawn) [Example I-023] | 90% | 80% | 80% | 100% | 80% | 90% |  | 90% | 90% | 90% | 90% | 80% | 80% | 90% |
| Cc1cc(Cl)cc(C2=NOC(C(=O)N[C@H]3C=C[C@@H](C(=O)OCCCl)C3)(C(F)(F)F)C2)c1 (stereo partly drawn) [Example I-028] | 90% |  | 80% | 100% | 80% | 90% | 80% | 90% | 80% | 100% | 80% | 80% | 80% | 90% |
| CCOCCOC(=O)[C@@H]1C=C[C@H](NC(=O)[C@@]2(C(F)(F)F)CC(c3cc(F)cc(F)c3)=NO2)C1 [Example I-077] | 90% | 80% | 90% | 80% | 80% | 80% | 80% | 90% | 80% | 100% | 90% |  | 80% | 80% |
| C[C@]1(C(=O)N[C@@H]2C=C(C(=O)O)CC2)CC(c2cc(F)cc(F)c2)=NO1 [Example V-01] | 100% | 90% | 90% | 90% | 90% | 80% | 90% | 100% | 80% |  | 80% | 80% | 90% | 80% |
